Reference: patent US9695155B2, “Herbicidal substituted pyrimidinyloxy benzene compounds” (E. I. DU PONT DE NEMOURS AND COMPANY, priority 2013, dated 2017)

Assays:
corn = assay: Test A postemergence; format: in vivo, Zea mays
Outline: (§1)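 Visual injury scored 0–100 (100 = complete control) against untreated controls about 10 days after treatment in a greenhouse. Test chemicals, formulated with surfactant in non-phytotoxic solvent, were sprayed on soil preemergence or on 2-10 cm, one- to two-leaf plants postemergence.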

kochia [1] = assay: Test A preemergence; format: in vivo, Kochia scoparia; settings: for Plant response rating, Kochia: 0 to 100 scale where 0 is no effect and 100 is complete control
Outline: as §1

galium = assay: Test C postemergence; format: in vivo, Galium aparine
Outline: (§2)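 Plants were kept under greenhouse conditions for 13–15 days following spray. Pre-emergent application went to soil (loam–sand), post-emergent to foliage at 1–4 leaves. Evaluation: visual, percent control against untreated checks.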

kochia [2] = assay: Test A postemergence; format: in vivo, Kochia scoparia; settings: for Plant response rating, Kochia: 0 to 100 scale, 0 no effect, 100 complete control
Outline: as §1

waterhemp = assay: Test C postemergence; format: in vivo, Amaranthus rudis
Outline: as §2

ragweed [3] = assay: Test A postemergence; format: in vivo, Ambrosia elatior; settings: for Plant response rating, Ragweed: 0 to 100 scale, 0 no effect, 100 complete control
Outline: as §1

barnyardgrass [4] = assay: Test C postemergence; format: in vivo, Echinochloa crus-galli
Outline: as §2

ragweed [5] = assay: Test C postemergence; format: in vivo, Ambrosia elatior
Outline: as §2

wheat, winter = assay: Test C postemergence; format: in vivo, Triticum aestivum
Outline: as §2

yellow nutsedge = assay: Test C postemergence; format: in vivo, Cyperus esculentus
Outline: as §2

barnyardgrass [6] = assay: Test A postemergence; format: in vivo, Echinochloa crus-galli
Outline: as §1

wild oat = assay: Test C postemergence; format: in vivo, Avena fatua
Outline: as §2

[7] = 31 g ai/ha, postemergence, visual rating, scale 0 to 100 (0 no effect, 100 complete control), 13 to 15 days
[8] = 31 g ai/ha, 0 to 100 scale, 0 no effect, 100 complete control
[9] = 125 g ai/ha, 0 to 100 scale where 0 is no effect and 100 is complete control
[10] = 16 g ai/ha, postemergence, 0 is no effect, 100 is complete control
[11] = 125 g ai/ha, postemergence, visual rating, scale 0 to 100 (0 no effect, 100 complete control)
[12] = Postemergence, 62 g ai/ha, scale 0 to 100 (0 no effect, 100 complete control)

## Clc1cnc(Oc2ccccc2-n2cc(C3CC3)nn2)nc1 [Compound 160, 5-chloro-2-[2-(4-cyclopropyl-1H-1,2,3-triazol-1-yl)phenoxy]pyrimidine]
corn; Zea mays, post-emergence, 240 h, 1000 g ai/ha, 0 to 100 scale, 0 no effect, 100 complete control, read-out: Plant response rating Corn
  plant injury at 1000 g/ha: 100%
Kochia [1]; 1000 g ai/ha, 0 to 100 scale, 0 no effect, 100 complete control, approx. 10 days
  Kochia plant response rating: 100
galium; Galium, post-emergence, 16 g ai/ha, postemergence, 0 is no effect, 100 is complete control, read-out: Plant response rating (0 to 100), Galium
  pest or weed control at 16 g/ha: 80%
galium; Galium, post-emergence, 31 g ai/ha, postemergence, visual rating, scale 0 to 100 (0 no effect, 100 complete control), 13 to 15 days, read-out: Galium plant response rating
  pest or weed control at 31 g/ha: 80%
galium; Galium, post-emergence, 125 g ai/ha, postemergence, visual rating, scale 0 to 100 (0 no effect, 100 complete control), read-out: Plant response rating, Galium
  pest or weed control at 125 g/ha: 85%
galium; Galium, post-emergence, Postemergence, 62 g ai/ha, scale 0 to 100 (0 no effect, 100 complete control), read-out: Plant response rating, Galium
  pest or weed control at 62 g/ha: 95%
Kochia [2]; 1000 g ai/ha
  Plant response rating, Kochia: 100
waterhemp; [7]
  Waterhemp plant response rating: 35
waterhemp; Amaranthus tuberculatus, post-emergence, 16 g ai/ha, postemergence, 0 is no effect, 100 is complete control, read-out: Plant response rating (0 to 100), Waterhemp
  pest or weed control at 16 g/ha: 70%
waterhemp; Amaranthus tuberculatus, post-emergence, 125 g ai/ha, postemergence, visual rating, scale 0 to 100 (0 no effect, 100 complete control), read-out: Plant response rating, Waterhemp
  pest or weed control at 125 g/ha: 85%
waterhemp; Amaranthus tuberculatus, post-emergence, Postemergence, 62 g ai/ha, scale 0 to 100 (0 no effect, 100 complete control), read-out: Plant response rating, Waterhemp
  pest or weed control at 62 g/ha: 70%
Ragweed [3]; 1000 g ai/ha
  Plant response rating, Ragweed: 100
Barnyardgrass [4]; Echinochloa crus-galli, post-emergence, 16 g ai/ha, postemergence, 0 is no effect, 100 is complete control, read-out: Plant response rating (0 to 100), Barnyardgrass
  pest or weed control at 16 g/ha: 5%
Barnyardgrass [4]; Echinochloa crus-galli, post-emergence, 31 g ai/ha, postemergence, visual rating, scale 0 to 100 (0 no effect, 100 complete control), 13 to 15 days, read-out: Barnyardgrass plant response rating
  pest or weed control at 31 g/ha: 5%
Barnyardgrass [4]; Echinochloa crus-galli, post-emergence, 125 g ai/ha, postemergence, visual rating, scale 0 to 100 (0 no effect, 100 complete control), read-out: Plant response rating, Barnyardgrass
  pest or weed control at 125 g/ha: 5%
Barnyardgrass [4]; Echinochloa crus-galli, post-emergence, Postemergence, 62 g ai/ha, scale 0 to 100 (0 no effect, 100 complete control), read-out: Plant response rating, Barnyardgrass
  pest or weed control at 62 g/ha: 5%
Ragweed [5]; [7]
  Ragweed plant response rating: 45
Ragweed [5]; Ambrosia artemisiifolia, post-emergence, 16 g ai/ha, postemergence, 0 is no effect, 100 is complete control, read-out: Plant response rating (0 to 100), Ragweed
  pest or weed control at 16 g/ha: 10%
Ragweed [5]; Ambrosia artemisiifolia, post-emergence, 125 g ai/ha, postemergence, visual rating, scale 0 to 100 (0 no effect, 100 complete control), read-out: Plant response rating, Ragweed
  pest or weed control at 125 g/ha: 70%
Ragweed [5]; Ambrosia artemisiifolia, post-emergence, Postemergence, 62 g ai/ha, scale 0 to 100 (0 no effect, 100 complete control), read-out: Plant response rating, Ragweed
  pest or weed control at 62 g/ha: 60%
wheat, winter; [7]
  Wheat plant response rating: 5
wheat, winter; Triticum aestivum, post-emergence, 16 g ai/ha, postemergence, 0 is no effect, 100 is complete control, read-out: Plant response rating (0 to 100), Wheat
  plant injury at 16 g/ha: 0%
wheat, winter; Triticum aestivum, post-emergence, 125 g ai/ha, postemergence, visual rating, scale 0 to 100 (0 no effect, 100 complete control), read-out: Plant response rating, Wheat
  plant injury at 125 g/ha: 5%
wheat, winter; Triticum aestivum, post-emergence, Postemergence, 62 g ai/ha, scale 0 to 100 (0 no effect, 100 complete control), read-out: Plant response rating, Wheat
  plant injury at 62 g/ha: 5%
Yellow nutsedge; [7]
  Nutsedge, Yellow plant response rating: 5
Yellow nutsedge; Cyperus, post-emergence, 16 g ai/ha, postemergence, 0 is no effect, 100 is complete control, read-out: Plant response rating (0 to 100), Nutsedge, Yellow
  pest or weed control at 16 g/ha: 5%
Yellow nutsedge; Cyperus, post-emergence, 125 g ai/ha, postemergence, visual rating, scale 0 to 100 (0 no effect, 100 complete control), read-out: Plant response rating, Nutsedge, Yellow
  pest or weed control at 125 g/ha: 5%
Yellow nutsedge; Cyperus, post-emergence, Postemergence, 62 g ai/ha, scale 0 to 100 (0 no effect, 100 complete control), read-out: Plant response rating, Nutsedge, Yellow
  pest or weed control at 62 g/ha: 5%
Barnyardgrass [6]; Echinochloa crus-galli, post-emergence, 240 h, 1000 g ai/ha, 0 to 100 scale, 0 no effect, 100 complete control, read-out: Plant response rating Barnyardgrass
  pest or weed control at 1000 g/ha: 100%
Wild oat; [7]
  Oat, Wild plant response rating: 0
Wild oat; Avena fatua, post-emergence, 16 g ai/ha, postemergence, 0 is no effect, 100 is complete control, read-out: Plant response rating (0 to 100), Oat, Wild
  pest or weed control at 16 g/ha: 0%
Wild oat; Avena fatua, post-emergence, 125 g ai/ha, postemergence, visual rating, scale 0 to 100 (0 no effect, 100 complete control), read-out: Plant response rating, Oat, Wild
  pest or weed control at 125 g/ha: 0%
Wild oat; Avena fatua, post-emergence, Postemergence, 62 g ai/ha, scale 0 to 100 (0 no effect, 100 complete control), read-out: Plant response rating, Oat, Wild
  pest or weed control at 62 g/ha: 0%

## N#Cc1cnn(-c2c(Br)cccc2Oc2ncc(Cl)cn2)c1 [Compound 140]
corn; [8]
  Plant response rating, Corn: 20
corn; [9]
  Corn plant response rating: 30
Kochia [1]; 31 g ai/ha, visual, approximately 10 days
  Plant response rating, Kochia: 60
Kochia [1]; 125 g ai/ha
  Plant response rating, Kochia: 100
galium; [10]
  Plant response rating (0 to 100), Galium: 50
galium; [11]
  Plant response rating, Galium: 95
galium; [12]
  Plant response rating, Galium: 90
Kochia [2]; 31 g ai/ha
  Plant response rating, Kochia: 90
Kochia [2]; [9]
  Kochia plant response rating: 100
waterhemp; [10]
  Plant response rating (0 to 100), Waterhemp: 75
waterhemp; [11]
  Plant response rating, Waterhemp: 85
waterhemp; [12]
  Plant response rating, Waterhemp: 80
Ragweed [3]; 31 g ai/ha
  Plant response rating, Ragweed: 60
Ragweed [3]; [9]
  Ragweed plant response rating: 70
Barnyardgrass [4]; [10]
  Plant response rating (0 to 100), Barnyardgrass: 5
Barnyardgrass [4]; [11]
  Plant response rating, Barnyardgrass: 10
Barnyardgrass [4]; Postemergence, 31 g ai/ha, scale 0 to 100 (0 no effect, 100 complete control), 13 to 15 days
  Plant response rating, Barnyardgrass: 10
Barnyardgrass [4]; [12]
  Plant response rating, Barnyardgrass: 10
Ragweed [5]; [10]
  Plant response rating (0 to 100), Ragweed: 25
Ragweed [5]; [11]
  Plant response rating, Ragweed: 75
Ragweed [5]; [12]
  Plant response rating, Ragweed: 60
wheat, winter; [10]
  Plant response rating (0 to 100), Wheat: 0
wheat, winter; [11]
  Plant response rating, Wheat: 10
wheat, winter; [12]
  Plant response rating, Wheat: 0
Yellow nutsedge; [10]
  Plant response rating (0 to 100), Nutsedge, Yellow: 0
Yellow nutsedge; [11]
  Plant response rating, Nutsedge, Yellow: 5
Yellow nutsedge; [12]
  Plant response rating, Nutsedge, Yellow: 5
Barnyardgrass [6]; [8]
  Plant response rating, Barnyardgrass: 30
Barnyardgrass [6]; [9]
  Barnyardgrass plant response rating: 70
Wild oat; [10]
  Plant response rating (0 to 100), Oat, Wild: 0
Wild oat; [11]
  Plant response rating, Oat, Wild: 5
Wild oat; [12]
  Plant response rating, Oat, Wild: 0
